Test results taken from US5977133A, “Pyridone antibiotic with improved safety profile” (priority 1998, dated 1999).
Structures can show the parent of a compound that is named as a salt. Where two headings read alike, the source gives them in different places.

What was measured:
Assay type in all cases: cell-based
[1] = tested on: P. aeruginosa (CiproS); assay: In vitro MIC, agar dilution; settings: Pseudomonas aeruginosa, P. aeruginosa (CiproS), 24 isolates
[2] = tested on: E. faecium (VanS); assay: In vitro MIC, agar dilution; settings: Enterococcus faecium
[3] = tested on: H. influenzae; assay: In vitro MIC, agar dilution; settings: Haemophilus influenzae, H. influenzae, 18 isolates
[4] = tested on: Shigella spp.; assay: microbe, parasite or virus in culture; settings: read-out: MIC Range
[5] = tested on: P. mirabilis; assay: In vitro MIC, agar dilution; settings: Proteus mirabilis
[6] = tested on: H. pylori; assay: In vitro MIC, agar dilution; settings: Helicobacter pylori
[7] = tested on: S. aureus (CiproS); assay: In vitro MIC, agar dilution; settings: Staphylococcus aureus
[8] = tested on: Klebsiella spp.; assay: In vitro MIC, agar dilution
[9] = tested on: E. faecium (CiproS); assay: In vitro MIC, agar dilution; settings: Enterococcus faecium
[10] = tested on: C. freundii; assay: In vitro MIC, agar dilution; settings: Citrobacter freundii
[11] = tested on: P. aeruginosa (CiproR); assay: In vitro MIC, agar dilution
[12] = tested on: Providencia spp.; assay: In vitro MIC, agar dilution
[13] = tested on: M. avium; assay: In vitro MIC, agar dilution; settings: Mycobacterium avium
[14] = tested on: E. coli; assay: In vitro MIC, agar dilution; settings: Escherichia coli, 25 isolates
Experimental: (§1) Each plate was inoculated with 1:100 (or 1:10 for slow-growing strains, primarily Micrococcus and Streptococcus) dilutions of up to 32 different microorganisms, using a Steers replicator block calibrated to deliver approximately 10^4 colony forming units (CFU's). The inoculated plates were incubated at from about 35° C. to about 37 ° C. for approximately 20-24 hours. In addition, a control plate using BHI agar containing no test compound was prepared and incubated at the beginning and at the end of each test. The quinolone antibacterial ciprofloxacin was used as a control ("Cntl").
(§2) The numbers below the microorganism species indicate the nunbers of isolates tested. […] The MIC is defined as the lowest concentration of test compound yielding no growth (a slight haze or sparsely isolated colonies at the inoculum spot) as compared to the growth control containing no test compound.

[15] = tested on: Salmonella spp.; assay: In vitro MIC, agar dilution; settings: 23 isolates
Experimental: as §1, §2

[16] = tested on: Enterococcus spp. (VanR); assay: In vitro MIC, agar dilution; settings: Enterococcus spp. (VanR), 21 isolates
[17] = tested on: Enterobacter spp.; assay: In vitro MIC, agar dilution
[18] = tested on: M. catarrhalis; assay: In vitro MIC, agar dilution; settings: Moraxella catarrhalis
[19] = tested on: S. aureus (CiproR); assay: In vitro MIC, agar dilution; settings: Staphylococcus aureus
[20] = tested on: C. perfringens; assay: microbe, parasite or virus in culture; settings: Clostridium perfringens
[21] = tested on: S. pneumoniae (PenR); assay: In vitro MIC, agar dilution; settings: Streptococcus pneumoniae
[22] = tested on: S. epidermidis (CiproS); assay: In vitro MIC, agar dilution; settings: Staphylococcus epidermidis
[23] = tested on: S. epidermidis (CiproR); assay: In vitro MIC, agar dilution; settings: Staphylococcus epidermidis
[24] = tested on: E. faecium (CiproR); assay: In vitro MIC, agar dilution; settings: Enterococcus faecium; E. faecium (CiproR), 2 isolates; read-out: MIC Range
[25] = tested on: B. fragilis; assay: In vitro MIC, agar dilution
[26] = tested on: M. pneumoniae; assay: In vitro MIC, agar dilution; settings: Mycoplasmoides pneumoniae; M. pneumoniae, 7 isolates; read-out: MIC Range
[27] = tested on: E. faecalis (VanS); assay: In vitro MIC, agar dilution; settings: Enterococcus faecalis
[28] = tested on: C. difficile; assay: In vitro MIC, agar dilution; settings: C. difficile
[29] = tested on: Legionella spp.; assay: microbe, parasite or virus in culture; settings: Legionella

Compound: CN[C@@H]1CN(c2c(F)cn3c(=O)c(C(=O)O)cc(C4CC4)c3c2C)CC12CC2 [Example 1, 1-cyclopropyl-8-(7(S)-N-methylamino-5-azaspiro[2.4]heptyl)-7-fluoro-9-methyl-4-oxo-4H-guinolizine-3-carboxylic acid hydrochloride]
- MIC50 ([1]; read-out: MIC50): 0.5 µg/mL
- MIC90 ([1]; read-out: MIC90): 2 µg/mL
- MIC ([1]; read-out: MIC Range): 0.12 to 4 µg/mL
- MIC ([2]; read-out: MIC Range): 0.12 to 1 µg/mL
- MIC50 ([2]; E. faecium (VanS), 11 isolates, read-out: MIC50): 0.5 µg/mL
- MIC90 ([2]; E. faecium (VanS), 11 isolates, read-out: MIC90): 1 µg/mL
- MIC50 ([3]; read-out: MIC50): 0.004 µg/mL
- MIC90 ([3]; read-out: MIC90): 0.008 µg/mL
- MIC ([3]; read-out: MIC Range): 0.002 to 0.015 µg/mL
- MIC [4]: 0.002 to 0.15 µg/mL
- MIC90 [5]: 0.12 µg/mL
- MIC ([5]; read-out: MIC Range): 0.03 to 0.25 µg/mL
- MIC50 ([5]; P. mirabilis, 20 isolates, read-out: MIC50): 0.12 µg/mL
- MIC50 [6]: 0.03 µg/mL
- MIC90 [6]: 0.03 µg/mL
- MIC ([6]; H. pylori, 17 isolates, read-out: MIC Range): 0.008 to 0.03 µg/mL
- MIC90 [7]: 0.03 µg/mL
- MIC50 ([7]; S. aureus (CiproS), 21 isolates, read-out: MIC50): 0.015 µg/mL
- MIC ([7]; S. aureus (CiproS), 21 isolates, read-out: MIC Range): 0.015 to 0.03 µg/mL
- MIC90 ([8]; Klebsiella): 0.03 µg/mL
- MIC50 ([8]; Klebsiella spp., 29 isolates, read-out: MIC50): 0.015 µg/mL
- MIC ([8]; Klebsiella spp., 29 isolates, read-out: MIC Range): 0.002 to 0.12 µg/mL
- MIC ([9]; read-out: MIC Range): 0.25 to 1 µg/mL
- MIC50 ([9]; E. faecium (CiproS), 16 isolates, read-out: MIC50): 0.5 µg/mL
- MIC90 ([9]; E. faecium (CiproS), 16 isolates, read-out: MIC90): 1 µg/mL
- MIC50 [10]: 0.03 µg/mL
- MIC90 [10]: 0.25 µg/mL
- MIC ([10]; C. freundii, 20 isolates, read-out: MIC Range): 0.015 to 0.25 µg/mL
- MIC50 ([11]; Pseudomonas aeruginosa, P. aeruginosa (CiproR), 20 isolates, read-out: MIC50): 8 µg/mL
- MIC90 ([11]; Pseudomonas aeruginosa, P. aeruginosa (CiproR), 20 isolates, read-out: MIC90): 16 µg/mL
- MIC ([11]; Pseudomonas aeruginosa, P. aeruginosa (CiproR), 20 isolates, read-out: MIC Range): 4 to 32 µg/mL
- MIC90 ([11]; ciprofloxacin resistant P. aeruginosa strains): 16 (g/mL
- MIC90 ([12]; Providencia): 0.25 µg/mL
- MIC50 ([12]; Providencia spp., 28 isolates, read-out: MIC50): 0.06 µg/mL
- MIC ([12]; Providencia spp., 28 isolates, read-out: MIC Range): 0.015 to 1 µg/mL
- MIC ([13]; read-out: MIC Range): 0.25 to 8 µg/mL
- MIC50 ([13]; M. avium, 20 isolates, read-out: MIC50): 1 µg/mL
- MIC90 ([13]; M. avium, 20 isolates, read-out: MIC90): 4 µg/mL
- MIC [14]: 0.004 to 0.015 µg/mL
- MIC50 ([14]; read-out: MIC50): 0.015 µg/mL
- MIC90 ([14]; read-out: MIC90): 0.015 µg/mL
- MIC [15]: 0.004 to 0.12 µg/mL
- MIC50 ([15]; read-out: MIC50): 0.03 µg/mL
- MIC90 ([15]; read-out: MIC90): 0.03 µg/mL
- MIC50 ([16]; read-out: MIC50): 0.5 µg/mL
- MIC90 ([16]; read-out: MIC90): 1 µg/mL
- MIC ([16]; read-out: MIC Range): 0.06 to 4 µg/mL
- MIC90 ([17]; Enterobacter): 0.03 µg/mL
- MIC50 ([17]; Enterobacter spp., 35 isolates, read-out: MIC50): 0.015 µg/mL
- MIC ([17]; Enterobacter spp., 35 isolates, read-out: MIC Range): 0.008 to 0.12 µg/mL
- MIC90 [18]: 0.03 µg/mL
- MIC50 ([18]; M. catarrhalis, 18 isolates, read-out: MIC50): 0.015 µg/mL
- MIC ([18]; M. catarrhalis, 18 isolates, read-out: MIC Range): 0.008 to 0.03 µg/mL
- MIC90 [19]: 0.5 µg/mL
- MIC50 ([19]; S. aureus (CiproR), 25 isolates, read-out: MIC50): 0.5 µg/mL
- MIC ([19]; S. aureus (CiproR), 25 isolates, read-out: MIC Range): 0.015 to 0.5 µg/mL
- MIC50 [20]: 0.12 µg/mL
- MIC90 [20]: 0.12 µg/mL
- MIC90 ([20]; C. perfringens, 13 isolates): 0.25 µg/mL
- MIC ([20]; read-out: MIC Range): 0.12 to 0.25 µg/mL
- MIC90 [21]: 0.06 µg/mL
- MIC50 ([21]; S. pneumoniae (PenR), 25 isolates, read-out: MIC50): 0.06 µg/mL
- MIC ([21]; S. pneumoniae (PenR), 25 isolates, read-out: MIC Range): 0.03 to 0.06 µg/mL
- MIC90 [22]: 0.03 µg/mL
- MIC50 ([22]; S. epidermidis (CiproS), 23 isolates, read-out: MIC50): 0.015 µg/mL
- MIC ([22]; S. epidermidis (CiproS), 23 isolates, read-out: MIC Range): 0.015 to 0.03 µg/mL
- MIC90 [23]: 0.5 µg/mL
- MIC ([23]; read-out: MIC Range): 0.12 to 2 µg/mL
- MIC50 ([23]; S. epidermidis (CiproR), 11 isolates, read-out: MIC50): 0.25 µg/mL
- MIC [24]: 0.5 to 4 µg/mL
- MIC90 ([25]; B. fragilis, 18 isolates): 0.12 µg/mL
- MIC ([25]; Bacteroides fragilis, read-out: MIC Range): 0.06 to 0.12 µg/mL
- MIC50 ([25]; Bacteroides fragilis, B. fragilis, 18 isolates, read-out: MIC50): 0.06 µg/mL
- MIC90 ([25]; Bacteroides fragilis, B. fragilis, read-out: MIC90): 0.12 µg/mL
- MIC [26]: 0.015 to 0.03 µg/mL
- MIC90 [27]: 0.25 µg/mL
- MIC ([27]; read-out: MIC Range): 0.12 to 0.25 µg/mL
- MIC50 ([27]; E. faecalis (VanS), 17 isolates, read-out: MIC50): 0.12 µg/mL
- MIC90 ([28]; 10 isolates): 0.5 µg/mL
- MIC50 ([28]; Clostridioides difficile, 10 isolates, read-out: MIC50): 0.5 µg/mL
- MIC ([28]; Clostridioides difficile, 10 isolates, read-out: MIC Range): 0.5 µg/mL
- MIC90 ([28]; Clostridioides difficile, read-out: MIC90): 0.5 µg/mL
- MIC50 [29]: 0.12 µg/mL
- MIC90 [29]: 0.25 µg/mL
- MIC ([29]; read-out: MIC Range): 0.12 to 0.25 µg/mL
